Measured values taken from patent US10800791B2, “Triazole ACC inhibitors and uses thereof” (Gilead Apollo, LLC, priority 2015, dated 2020).
≈ marks a conversion by molar mass, not a printed value. Read-outs that look alike come from different tables or passages of the source.

What was measured:
C. krusei = test: Antifungal Activity Assay (broth microtiter MIC), C. krusei; assay type: cell-based, Candida krusei; conditions: Pichia kudriavzevii, ATCC6258, 48 h
How it was run: (§1)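 MIC read by eye at 48 h, comparing challenged wells with the growth control. Yeasts grown overnight on Sabouraud dextrose agar at 35° C, suspended in RPMI 1640+MOPS and added at 2.5×10^3 CFU/mL final, following CLSI M27-A3.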

C. albicans = test: Antifungal Activity Assay (broth microtiter MIC), C. albicans; assay type: cell-based, Candida albicans; conditions: Candida albicans, ATCC90028, 48 h
How it was run: as §1

C. parapsilosis = test: Antifungal Activity Assay (broth microtiter MIC), C. parapsilosis; assay type: cell-based, Candida parapsilosis; conditions: Lodderomyces parapsilosis, ATCC22019, 48 h
How it was run: as §1

human (hACC2) = human (hACC2) (Homo sapiens, UniProt O00763); test: In vitro ACC inhibition assay (ADP-Glo), hACC2; assay type: biochemical; conditions: 5 nM ACC2, 20 μM ATP, 20 μM acetyl-CoA
Sequence of human (hACC2) (O00763 whole entry): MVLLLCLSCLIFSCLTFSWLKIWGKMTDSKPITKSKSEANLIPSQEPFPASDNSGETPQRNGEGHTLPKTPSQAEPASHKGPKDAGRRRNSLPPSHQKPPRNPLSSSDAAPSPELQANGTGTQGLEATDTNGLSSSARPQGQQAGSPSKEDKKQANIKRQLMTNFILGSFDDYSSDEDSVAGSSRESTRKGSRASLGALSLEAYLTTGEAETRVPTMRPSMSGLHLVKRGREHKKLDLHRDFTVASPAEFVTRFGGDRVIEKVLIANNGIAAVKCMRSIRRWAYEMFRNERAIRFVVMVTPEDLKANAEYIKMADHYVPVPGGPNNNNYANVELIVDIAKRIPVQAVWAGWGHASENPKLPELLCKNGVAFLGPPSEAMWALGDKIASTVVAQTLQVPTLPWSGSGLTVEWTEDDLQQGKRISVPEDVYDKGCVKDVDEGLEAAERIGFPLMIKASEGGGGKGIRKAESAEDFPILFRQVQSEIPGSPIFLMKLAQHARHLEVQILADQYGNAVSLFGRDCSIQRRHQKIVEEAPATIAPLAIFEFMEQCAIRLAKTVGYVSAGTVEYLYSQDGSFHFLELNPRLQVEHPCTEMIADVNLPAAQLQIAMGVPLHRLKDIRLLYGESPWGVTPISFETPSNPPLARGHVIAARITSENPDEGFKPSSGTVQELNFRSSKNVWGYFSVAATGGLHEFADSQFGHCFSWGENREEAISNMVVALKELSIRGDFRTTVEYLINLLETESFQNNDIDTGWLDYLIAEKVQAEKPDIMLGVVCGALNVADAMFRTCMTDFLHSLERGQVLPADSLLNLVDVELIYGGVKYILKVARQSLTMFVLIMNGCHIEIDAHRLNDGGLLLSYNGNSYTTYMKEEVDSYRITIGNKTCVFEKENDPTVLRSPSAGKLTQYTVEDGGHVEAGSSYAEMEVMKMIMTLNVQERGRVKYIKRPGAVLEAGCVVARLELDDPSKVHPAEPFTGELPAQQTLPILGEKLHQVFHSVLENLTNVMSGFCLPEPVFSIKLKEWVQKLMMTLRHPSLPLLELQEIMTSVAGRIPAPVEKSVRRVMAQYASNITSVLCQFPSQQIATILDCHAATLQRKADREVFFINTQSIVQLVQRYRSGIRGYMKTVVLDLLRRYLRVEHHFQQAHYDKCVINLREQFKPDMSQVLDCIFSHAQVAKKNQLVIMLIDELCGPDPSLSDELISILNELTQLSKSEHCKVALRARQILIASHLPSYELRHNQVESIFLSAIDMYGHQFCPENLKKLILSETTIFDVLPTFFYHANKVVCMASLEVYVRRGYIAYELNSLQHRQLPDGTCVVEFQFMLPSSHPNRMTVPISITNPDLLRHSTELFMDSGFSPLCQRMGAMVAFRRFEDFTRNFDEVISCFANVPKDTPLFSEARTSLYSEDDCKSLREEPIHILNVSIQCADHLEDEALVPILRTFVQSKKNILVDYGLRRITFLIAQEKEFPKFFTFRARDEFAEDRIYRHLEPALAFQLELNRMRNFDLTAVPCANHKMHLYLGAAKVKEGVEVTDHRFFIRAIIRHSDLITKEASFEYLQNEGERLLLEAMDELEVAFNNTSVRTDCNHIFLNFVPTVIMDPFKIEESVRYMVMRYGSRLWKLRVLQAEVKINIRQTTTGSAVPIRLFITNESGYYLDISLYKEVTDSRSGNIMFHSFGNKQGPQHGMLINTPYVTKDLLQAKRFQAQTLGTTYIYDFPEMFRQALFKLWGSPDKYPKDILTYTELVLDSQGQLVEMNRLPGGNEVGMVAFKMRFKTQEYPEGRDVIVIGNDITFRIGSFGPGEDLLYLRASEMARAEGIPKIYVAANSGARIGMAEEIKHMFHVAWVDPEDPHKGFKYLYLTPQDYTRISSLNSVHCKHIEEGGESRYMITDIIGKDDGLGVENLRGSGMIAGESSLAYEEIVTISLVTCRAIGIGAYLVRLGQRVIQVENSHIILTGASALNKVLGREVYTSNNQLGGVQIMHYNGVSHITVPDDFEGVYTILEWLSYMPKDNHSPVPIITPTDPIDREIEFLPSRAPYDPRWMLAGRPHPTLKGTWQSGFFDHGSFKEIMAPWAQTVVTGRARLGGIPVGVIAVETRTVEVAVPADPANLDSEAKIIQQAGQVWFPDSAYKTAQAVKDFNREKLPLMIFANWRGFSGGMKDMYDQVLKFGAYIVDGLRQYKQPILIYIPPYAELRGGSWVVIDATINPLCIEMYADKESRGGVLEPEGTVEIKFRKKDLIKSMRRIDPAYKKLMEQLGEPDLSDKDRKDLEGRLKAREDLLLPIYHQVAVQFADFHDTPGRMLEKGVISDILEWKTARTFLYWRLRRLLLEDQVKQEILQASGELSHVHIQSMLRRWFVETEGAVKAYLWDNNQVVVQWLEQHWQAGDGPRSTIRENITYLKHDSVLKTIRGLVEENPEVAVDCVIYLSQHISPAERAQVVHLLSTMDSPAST
Protocol: The detailed procedure is as follows. […] 10 μL ADP glo reagent was added. […] 20 μL kinase detection reagent was added.

fungal (fACC2) = fungal (fACC2) (UniProt Q00955); conditions: read-out: fACC2 (in vitro ACC2 Inhibition Assay, IC50), ADP-Glo, 5 nM ACC2, 20 μM ATP, 20 μM acetyl-CoA
Sequence of fungal (fACC2) (Q00955 whole entry): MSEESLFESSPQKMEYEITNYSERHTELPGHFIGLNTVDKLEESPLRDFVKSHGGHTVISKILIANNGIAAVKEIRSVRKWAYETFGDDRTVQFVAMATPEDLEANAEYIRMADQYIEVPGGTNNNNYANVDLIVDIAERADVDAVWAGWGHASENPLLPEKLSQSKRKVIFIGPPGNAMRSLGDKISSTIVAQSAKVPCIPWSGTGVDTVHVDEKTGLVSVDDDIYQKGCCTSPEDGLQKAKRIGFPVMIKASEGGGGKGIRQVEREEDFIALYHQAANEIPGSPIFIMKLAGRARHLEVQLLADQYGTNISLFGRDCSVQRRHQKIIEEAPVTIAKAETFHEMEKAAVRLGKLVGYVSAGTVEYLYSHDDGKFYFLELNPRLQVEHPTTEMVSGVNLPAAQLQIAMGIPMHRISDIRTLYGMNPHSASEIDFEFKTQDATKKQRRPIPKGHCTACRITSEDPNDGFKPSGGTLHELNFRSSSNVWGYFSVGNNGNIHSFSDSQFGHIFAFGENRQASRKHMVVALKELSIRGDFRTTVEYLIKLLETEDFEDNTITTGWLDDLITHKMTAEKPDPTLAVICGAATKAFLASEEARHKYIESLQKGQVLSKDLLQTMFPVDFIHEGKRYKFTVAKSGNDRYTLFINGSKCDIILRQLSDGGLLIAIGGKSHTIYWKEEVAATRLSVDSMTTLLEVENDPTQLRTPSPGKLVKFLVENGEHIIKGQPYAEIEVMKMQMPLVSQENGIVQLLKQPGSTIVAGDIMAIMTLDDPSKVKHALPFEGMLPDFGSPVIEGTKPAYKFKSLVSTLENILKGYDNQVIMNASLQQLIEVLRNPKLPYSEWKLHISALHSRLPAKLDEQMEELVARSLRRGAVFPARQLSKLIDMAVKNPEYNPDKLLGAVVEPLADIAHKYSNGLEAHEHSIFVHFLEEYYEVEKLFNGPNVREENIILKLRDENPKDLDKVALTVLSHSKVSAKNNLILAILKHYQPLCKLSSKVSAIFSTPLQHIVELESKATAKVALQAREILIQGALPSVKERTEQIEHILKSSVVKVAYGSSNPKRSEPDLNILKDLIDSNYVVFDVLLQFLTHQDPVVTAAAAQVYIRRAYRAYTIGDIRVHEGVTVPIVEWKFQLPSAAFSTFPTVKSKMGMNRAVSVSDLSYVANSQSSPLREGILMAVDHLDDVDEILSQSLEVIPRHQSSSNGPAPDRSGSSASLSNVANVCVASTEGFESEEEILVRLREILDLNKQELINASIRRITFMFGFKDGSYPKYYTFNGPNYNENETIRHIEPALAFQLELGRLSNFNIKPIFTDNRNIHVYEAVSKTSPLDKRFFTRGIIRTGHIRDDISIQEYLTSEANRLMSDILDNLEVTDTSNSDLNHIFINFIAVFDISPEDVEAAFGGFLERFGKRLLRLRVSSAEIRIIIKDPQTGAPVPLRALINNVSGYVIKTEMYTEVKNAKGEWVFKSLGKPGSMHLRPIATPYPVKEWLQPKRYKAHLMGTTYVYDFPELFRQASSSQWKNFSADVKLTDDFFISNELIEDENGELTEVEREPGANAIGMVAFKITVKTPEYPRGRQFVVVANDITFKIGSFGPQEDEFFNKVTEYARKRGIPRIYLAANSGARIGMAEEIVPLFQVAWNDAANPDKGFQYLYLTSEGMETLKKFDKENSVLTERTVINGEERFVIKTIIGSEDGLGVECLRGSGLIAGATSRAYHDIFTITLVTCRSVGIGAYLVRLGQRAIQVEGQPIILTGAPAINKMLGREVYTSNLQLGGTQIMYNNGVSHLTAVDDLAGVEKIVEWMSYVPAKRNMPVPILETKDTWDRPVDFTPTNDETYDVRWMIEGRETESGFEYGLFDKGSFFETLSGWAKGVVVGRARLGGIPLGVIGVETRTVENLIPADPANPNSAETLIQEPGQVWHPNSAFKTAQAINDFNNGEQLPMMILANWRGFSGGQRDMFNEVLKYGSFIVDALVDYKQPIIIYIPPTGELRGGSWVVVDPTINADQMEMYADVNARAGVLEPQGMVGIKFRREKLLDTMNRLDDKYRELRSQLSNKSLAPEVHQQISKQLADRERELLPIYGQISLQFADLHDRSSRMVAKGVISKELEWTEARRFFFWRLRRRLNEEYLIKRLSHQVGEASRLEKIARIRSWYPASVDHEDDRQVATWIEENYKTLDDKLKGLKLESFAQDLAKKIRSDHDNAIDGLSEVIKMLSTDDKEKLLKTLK

[1] = Table 3a, ATCC 6258, 3 replicates, MIC recorded at 48 h, read-out: MIC, C. krusei ATCC 6258
[2] = Table 3b (additional results), ATCC 6258, 3 replicates, MIC recorded at 48 h, read-out: MIC, C. krusei ATCC 6258
[3] = Table 3a, ATCC 90028, 3 replicates, MIC recorded at 48 h, read-out: MIC, C. albicans ATCC 90028
[4] = Table 3b (additional results), ATCC 90028, 3 replicates, MIC recorded at 48 h, read-out: MIC, C. albicans ATCC 90028
[5] = Table 3a, ATCC 22019, 3 replicates, MIC recorded at 48 h, read-out: MIC, C. parapsilosis ATCC 22019
[6] = Table 3b (additional results), ATCC 22019, 3 replicates, MIC recorded at 48 h, read-out: MIC, C. parapsilosis ATCC 22019
[7] = read-out: MIC, C. krusei ATCC 6258, Table 3b (additional results), 3 replicates, MIC recorded at 48 h
[8] = read-out: MIC, C. albicans ATCC 90028, Table 3b (additional results), 3 replicates, MIC recorded at 48 h
[9] = read-out: MIC, C. parapsilosis ATCC 22019, Table 3b (additional results), 3 replicates, MIC recorded at 48 h

Row | Structure (SMILES) | MIC (C. krusei; [1]) [µg/mL] | MIC (C. krusei; [2]) [µg/mL] | MIC (C. albicans; [3]) [µg/mL] | MIC (C. albicans; [4]) [µg/mL] | MIC (C. parapsilosis; [5]) [µg/mL] | MIC (C. parapsilosis; [6]) [µg/mL] | IC50 (human (hACC2); Table 2a) [nM] | IC50 (human (hACC2); Table 2b, additional results) [nM] | IC50 (fungal (fACC2); Table 2a) [nM] | IC50 (fungal (fACC2); Table 2b, additional results) [nM] | MIC (C. krusei; [7]) [µg/mL] | MIC (C. albicans; [8]) [µg/mL] | MIC (C. parapsilosis; [9]) [µg/mL] | MIC (C. krusei; read-out: MIC, C. krusei ATCC 6258, Table 3a, 3 replicates, MIC recorded at 48 h) [µg/mL] | MIC (C. albicans; read-out: MIC, C. albicans ATCC 90028, Table 3a, 3 replicates, MIC recorded at 48 h) [µg/mL] | MIC (C. parapsilosis; read-out: MIC, C. parapsilosis ATCC 22019, Table 3a, 3 replicates, MIC recorded at 48 h) [µg/mL]
1 | COc1ccc(F)cc1[C@H](Cn1c(=O)n(C(C)(C)C(=O)NC(C)C)c(=O)c2c(C)c(-n3nccn3)sc21)OCCCO [Compound I-119] | 0.06 to 0.24 (≈ 0.0996 to 0.398 µM) | 0.25 to 1 (≈ 0.415 to 1.66 µM) | 0.25 to 1 (≈ 0.415 to 1.66 µM) | 0.25 to 1 (≈ 0.415 to 1.66 µM) | 0.25 to 1 (≈ 0.415 to 1.66 µM) | 0.25 to 1 (≈ 0.415 to 1.66 µM) | 1 to 5 | 1 to 5 | 0.4 to 1 | 0.3 to 1 |  |  |  |  |  | 
2 | COc1ccc(F)cc1[C@H](Cn1c(=O)n(C(C)(C)C(=O)N2CCCC2)c(=O)c2c(C)c(-n3nccn3)sc21)OCC(C)=O [Compound I-98] | 0.25 to 1 (≈ 0.408 to 1.63 µM) | 2.01 to 4 (≈ 3.28 to 6.53 µM) | 2.1 to 4 (≈ 3.43 to 6.53 µM) | 1.01 to 2 (≈ 1.65 to 3.26 µM) | 2.1 to 4 (≈ 3.43 to 6.53 µM) | 1.01 to 2 (≈ 1.65 to 3.26 µM) | 5 to 10 | 5 to 10 | 1 to 5 | 1 to 5 |  |  |  |  |  | 
3 | COc1ccc(F)cc1[C@H](Cn1c(=O)n(C(C)(C)C(=O)O)c(=O)c2c(C)c(-n3nccn3)sc21)O[C@H]1CC[C@H](C#N)CC1 [Compound I-157] |  | 1.01 to 2 (≈ 1.65 to 3.28 µM) |  | 1.01 to 2 (≈ 1.65 to 3.28 µM) |  | 2.01 to 4 (≈ 3.29 to 6.55 µM) | 5 to 10 | 5 to 10 | 1 to 5 | 1 to 5 |  |  |  |  |  | 
4 | COc1ccccc1[C@H](Cn1c(=O)n(C(C)(C)C(=O)NC(C)C)c(=O)c2c(C)c(-n3nccn3)sc21)OCCN1CC(F)C1 [Compound I-209] |  |  |  |  |  |  |  | > 40 |  | 1 to 5 | 0.25 to 1 (≈ 0.398 to 1.59 µM) | 1.01 to 2 (≈ 1.61 to 3.19 µM) | 0.25 to 1 (≈ 0.398 to 1.59 µM) |  |  | 
5 | COc1ccc(F)cc1[C@H](Cn1c(=O)n(C(C)(C)C(=O)NC(C)C)c(=O)c2c(C)c(-n3nccn3)sc21)O[C@H]1CC[C@H](C#N)CC1 [Compound I-159] |  |  |  |  |  |  | 1 to 5 | 1 to 5 | 1 to 5 | 1 to 5 | 0.06 to 0.249 (≈ 0.0921 to 0.382 µM) | 0.25 to 1 (≈ 0.384 to 1.53 µM) | 0.25 to 1 (≈ 0.384 to 1.53 µM) | 0.25 to 1 (≈ 0.384 to 1.53 µM) | 0.25 to 1 (≈ 0.384 to 1.53 µM) | 0.25 to 1 (≈ 0.384 to 1.53 µM)
6 | COc1ccc(F)cc1[C@@H](Cn1c(=O)n(C(C)(C)C(=O)NC(C)C)c(=O)c2c(C)c(-n3nccn3)sc21)OC(=O)CO [Compound I-261] |  | 0.06 to 0.249 (≈ 0.0996 to 0.413 µM) |  | 0.25 to 1 (≈ 0.415 to 1.66 µM) |  | 1.01 to 2 (≈ 1.68 to 3.32 µM) |  | 5 to 10 |  | 0.3 to 1 |  |  |  |  |  | 
7 | COCCO[C@@H](Cn1c(=O)n(C(C)(C)C(=O)NC(C)C)c(=O)c2c(C)c(-n3nccn3)sc21)c1ccccc1OC [Compound I-133] | 1.1 to 2 (≈ 1.88 to 3.42 µM) | 0.25 to 1 (≈ 0.428 to 1.71 µM) | 1.1 to 2 (≈ 1.88 to 3.42 µM) | 1.01 to 2 (≈ 1.73 to 3.42 µM) | 2.1 to 4 (≈ 3.59 to 6.84 µM) | 0.25 to 1 (≈ 0.428 to 1.71 µM) | 5 to 10 | 5 to 10 | 1 to 5 | 1 to 5 |  |  |  |  |  | 
8 | COc1ccc(F)cc1[C@H](Cn1c(=O)n(C(C)(C)C(N)=O)c(=O)c2c(C)c(-n3nccn3)sc21)OCCC(=O)C(F)(F)F [Compound I-123] | 1.1 to 2 (≈ 1.76 to 3.19 µM) | > 4.01 | 2.1 to 4 (≈ 3.35 to 6.38 µM) | > 4.01 | 2.1 to 4 (≈ 3.35 to 6.38 µM) | > 4.01 | 10 to 40 | 10 to 40 | 1 to 5 | 1 to 5 |  |  |  |  |  | 
9 | COc1ccc(F)cc1[C@H](Cn1c(=O)n(C(C)(C)C(=O)NC(C)C)c(=O)c2c(C)c(-n3nccn3)sc21)OC[C@@H](C)C(=O)O [Compound I-274] |  | 0.25 to 1 (≈ 0.396 to 1.59 µM) |  | 0.25 to 1 (≈ 0.396 to 1.59 µM) |  | 1.01 to 2 (≈ 1.6 to 3.17 µM) |  | > 40 |  | 0.3 to 1 |  |  |  |  |  | 
10 | COc1ccc(F)cc1[C@H](Cn1c(=O)n(C(C)(C)C(N)=O)c(=O)c2c(C)c(-n3nccn3)sc21)OC[C@@H](C)C#N [Compound I-152] | 2.1 to 4 (≈ 3.69 to 7.02 µM) | 2.01 to 4 (≈ 3.53 to 7.02 µM) | 2.1 to 4 (≈ 3.69 to 7.02 µM) | 1.01 to 2 (≈ 1.77 to 3.51 µM) | 2.1 to 4 (≈ 3.69 to 7.02 µM) | > 4.01 | 1 to 5 | 1 to 5 | 0.4 to 1 | 0.3 to 1 |  |  |  |  |  | 
